Test results reported in patent publication US12233060B2, “Inhibitors of Ataxia-Telangiectasia Mutated and Rad3-related protein kinase (ATR) for use in methods of treating cancer” (THE INSTITUTE OF CANCER RESEARCH: ROYAL CANCER HOSPITAL, priority 2016, dated 2025).

Key:
[1] = tested on: synovial sarcoma PDX SA13412; experiment: Synovial sarcoma patient-derived xenograft treatment; type: in vivo, mice
[2] = tested on: ARID1A mutant vs ARID1A wild type tumor cell lines; experiment: Five-day VX-970 sensitivity (AUC) in a diverse tumour cell line panel; type: cell-based, human; conditions: five days exposure, Student's t-test
Experimental: FIG. 2. In vitro ARID1A/ATR synthetic lethality. A. Chemical structure of VX-970. B. Western blot of ARID1A in human ARID1A isogenic HCT116 cells. C. Image of colonies in 6 well-plate clonogenic assay. HCT116 ARID1A isogenic (^+/+ and ^−/−) cell lines were exposed to increasing concentrations of the VE-821 (0, 0.1, 1 uM) and VX-970 (0, 0.01, 0.05 uM) for 14 days. D and E. Dose response clonogenic survival curve of HCT116 ARID1A isogenic (^+/+ and ^−/−) cell lines exposed to increasing concentrations of the VE-821 and VX-970 for 14 days. Error bars represent SD from triplicate experiments, ANOVA p-value of <0.0001. F. Area under curve (AUC) box whisker comparison plot for human tumor cell lines exposed to VX-970 for five days. ARID1A wild type tumor cell lines (n=15) were compared to ARID1A mutant cell lines (n=9). Student's t-test p=0.00594. G. Dose response clonogenic survival curve of mouse Arid1a isogenic ES cell lines. Experiment was performed as per (C). Error bars represent SD from triplicate experiments, ANOVA p value of <0.0001. H. Western blot of Arid1a protein expression in mouse ES Arid1a isogenic cells. […]
Short-term survival assays were performed in 384-well plates. […] Drug was added 24 h after seeding and cells were continuously exposed to the drug for five days, after which cell viability was estimated using CellTitre-Glo luminescence (Promega). […] Colonies were counted manually. […]

**Q.** What does the source list for `CNCc1ccc(-c2cc(-c3nc(-c4ccc(S(=O)(=O)C(C)C)cc4)cnc3N)on2)cc1` [VX-970, 5-[4-(Isopropylsulfonyl)phenyl]-3-(3-{4-[(methylamino)methyl]phenyl}-1,2-oxazol-5-yl)-2-pyrazinamine]?
**A.** tumour growth in PDX SA13412 ([1]; established PDX, ANOVA p<0.0001): inhibition of tumour growth; survival time of PDX-bearing mice ([1]; log rank Mantel p=0.026): increase in survival time; sensitivity of ARID1A mutant (n=9) vs non-mutant (n=15) tumour cell lines [2]: significantly more sensitive to VX-970
